Results reported in paper PMC7567930 (Heliyon, 2020).
“Also recorded” adds a separate entry of the source. Read-outs that look alike come from different tables or passages of the source.

Molecular target: Jack bean urease (Canavalia ensiformis, UniProt P07374)
Assay: Jack bean urease inhibition
Format: biochemical
[1] = IC50 ± SEM, Table 1, derivatives 3a-3f, triplicate
[2] = urease inhibition IC50, values in the abstract
[3] = read-out: IC50 ± SEM, Table 2, derivatives 6a-6f, triplicate

Jack bean urease, sequence (P07374 whole entry, looked up): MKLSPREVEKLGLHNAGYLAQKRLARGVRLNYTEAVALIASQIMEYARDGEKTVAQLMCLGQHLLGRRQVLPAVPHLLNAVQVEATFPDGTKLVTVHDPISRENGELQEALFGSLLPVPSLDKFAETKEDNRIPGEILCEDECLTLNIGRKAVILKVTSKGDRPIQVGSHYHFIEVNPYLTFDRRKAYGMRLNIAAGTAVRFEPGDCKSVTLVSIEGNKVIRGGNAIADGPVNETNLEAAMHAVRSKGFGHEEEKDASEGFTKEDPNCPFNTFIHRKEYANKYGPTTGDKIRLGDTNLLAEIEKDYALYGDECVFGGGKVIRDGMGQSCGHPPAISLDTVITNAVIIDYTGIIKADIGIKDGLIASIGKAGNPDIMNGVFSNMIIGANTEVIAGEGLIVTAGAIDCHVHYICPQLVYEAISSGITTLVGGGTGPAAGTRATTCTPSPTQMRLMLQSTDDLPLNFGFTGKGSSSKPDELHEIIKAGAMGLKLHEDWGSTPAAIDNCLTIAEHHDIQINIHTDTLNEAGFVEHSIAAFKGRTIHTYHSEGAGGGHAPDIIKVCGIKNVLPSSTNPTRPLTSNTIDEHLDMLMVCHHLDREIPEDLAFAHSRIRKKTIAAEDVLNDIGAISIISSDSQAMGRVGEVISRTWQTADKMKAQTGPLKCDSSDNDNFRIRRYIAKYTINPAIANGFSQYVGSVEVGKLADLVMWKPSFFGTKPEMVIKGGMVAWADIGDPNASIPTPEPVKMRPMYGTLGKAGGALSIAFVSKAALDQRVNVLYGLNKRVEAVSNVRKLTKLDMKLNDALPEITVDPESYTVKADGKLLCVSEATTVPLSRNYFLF

Structure (SMILES)	urease inhibition, result in words	IC50 [3]	further results
CC(O)c1nc2ccccc2[nH]1 (single isomer, unassigned) [compound 3a, (R or S)-1-(1H-benzo[d]imidazol-2-yl)ethanol]	significant urease inhibition; also recorded: good enzyme inhibitory activity; also recorded: most potent	–	IC50 [1]: 22 ± 6.2 µM; IC50 [2]: 22.3 ± 6.2 µM
NC(N)=S [thiourea, reference compound]	–	–	IC50 (read-out: IC50 of reference thiourea, standard inhibitor): 20.9 µM
CC(O)c1nc2ccccc2[nH]1 (single isomer, unassigned) [compound 3f, (R or S)-1-(1H-benzo[d]imidazol-2-yl)ethanol]	significant urease inhibition; also recorded: good enzyme inhibitory activity; also recorded: most potent	–	IC50 [1]: 31 ± 23.3 µM; IC50 [2]: 31.4 ± 23.3 µM
COc1ccc2cc(C(C)c3nc4ccc([N+](=O)[O-])cc4[nH]3)ccc2c1 (racemic) [compound 6d, (±)-6-Nitro-2-((R)-1-(2-methoxynaphthalen-6-yl)ethyl)-1H-benzo[d]imidazol]	not showing significant urease inhibition	99 ± 9.4 µM	–
COc1ccc2cc(C(C)n3cnc4ccccc43)ccc2c1 (racemic) [6f]	–	39 ± 2.4 µM	–
COc1ccc2cc(C(C)c3nc4ccc(C)cc4[nH]3)ccc2c1 (racemic) [6e, (±)-6-methyl-2-((R)-1-(2-methoxynaphthalen-6-yl)ethyl)-1H-benzo[d] imidazol]	–	44 ± 2.4 µM	–
COc1ccc2cc(C(C)c3nc4ccc(Cl)cc4[nH]3)ccc2c1 (racemic) [6b, (±)-6-chloro-2-((R)-1-(2-methoxynaphthalen-6-yl)ethyl)-1H-benzo[d]imidazol]	–	36 ± 1.7 µM	–
COc1ccc2cc(C(C)c3nc4ccc(Br)cc4[nH]3)ccc2c1 (racemic) [6c, (±)-6-bromo-2-((R)-1-(2-methoxynaphthalen-6-yl)ethyl)-1H-benzo[d]imidazol]	–	51 ± 9.3 µM	–
COc1ccc2cc(C(C)n3cnc4ccccc43)ccc2c1 (racemic) [6a]	–	38 ± 1.3 µM	–
